Assay [1] deals with HCV genotype 1a replicon. Nature of the assay: HCV replicon assay, genotype 1a (cell ELISA for NS3/4A). The class given is cell-based, hepatitis C virus. In a few lines: (§1)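 Stable replicon cells plated with a compound dilution series without G418 and incubated 96 h, then lysed. Replicon RNA measured indirectly by cell ELISA with an NS3/4A-specific antibody. IC50 calculated relative to DMSO control by four-parameter fit.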
For orientation: Replicon systems follow genome replication, usually without infectious particles.

The subject of assay [2] is HCV genotype 1b replicon. Nature of the assay: HCV replicon assay, genotype 1b (cell ELISA for NS3/4A). The class given is cell-based, hepatitis C virus. In a few lines: as §1
The mark [3] stands for this setting: Hepatitis C virus, 96 h, read-out: 1a IC50 (nM), genotype 1a replicon cells, 96 hours incubation, NS3/4A ELISA.
The mark [4] stands for this setting: Hepatitis C virus, 96 h, read-out: 1b IC50 (nM), genotype 1b replicon cells, 96 hours incubation, NS3/4A ELISA.
[5] abbreviates: read-out: 1a IC50, genotype 1a replicon cells, 96 hours incubation, NS3/4A ELISA.
Setting [6] is: read-out: 1b IC50, genotype 1b replicon cells, 96 hours incubation, NS3/4A ELISA.

Where two headings read alike, the source gives them in different places.

In the case of `CNC(=O)c1c(-c2ccc(F)cc2)oc2cc(N(C)S(C)(=O)=O)c(-c3ccc4ccn5c6cccc(F)c6cc5c4n3)cc12` [Example 82, 5-(11-fluoroindolo[1,2-h][1,7]naphthyridin-2-yl)-2-(4-fluorophenyl)-N-methyl-6-(N-methylmethylsulfonamido)benzofuran-3-carboxamide], the IC50 in assay [1] (setting [3]) came to 2.88 nM; in assay [2] (setting [4]), 5.54 nM.
Take `CNC(=O)c1c(-c2ccc(F)cc2)oc2cc(N(C)S(C)(=O)=O)c(-c3ccc4c(n3)-c3cc5ncccc5n3CC4)cc12` [Example 77]: the IC50 is 27.9 nM in assay [1] (setting [3]) and 4.03 nM in assay [2] (setting [4]).
For `CNC(=O)c1c(-c2ccc(F)cc2C#N)oc2cc(N(C)S(C)(=O)=O)c(-c3ccc4c(n3)-c3cc5c(F)cccc5n3CC4)cc12` [Example 13], the IC50 in assay [1] (setting [3]) was found to be 17.3 nM; in assay [2] (setting [4]) it was 16.5 nM.
Turning to `CNC(=O)c1c(-c2cnc(C)s2)oc2cc(N(C)S(C)(=O)=O)c(-c3ccc4c(n3)-c3cc5c(F)cccc5n3CC4)cc12` [Example 36, 5-(11-fluoro-5,6-dihydroindolo[1,2-h][1,7]naphthyridin-2-yl)-N-methyl-6-(N-methylmethylsulfonamido)-2-(2-methylthiazol-5-yl)benzofuran-3-carboxamide], the IC50 in assay [1] (setting [3]) was found to be 10.3 nM; in assay [2] (setting [4]), 10.2 nM.
For `CNC(=O)c1c(-c2ccc(F)cc2)oc2cc(N(C)S(C)(=O)=O)c(-c3cc4c(nn3)CCn3c-4cc4c(F)cccc43)cc12` [Example 48, 5-(11-fluoro-5,6-dihydropyridazino[4′,3′:3,4]pyrido[1,2-a]indol-2-yl)-2-(4-fluorophenyl)-N-methyl-6-(N-methylmethylsulfonamido)benzofuran-3-carboxamide], the IC50 in assay [1] (setting [3]) came to 1.72 nM; in assay [2] (setting [4]), 2.64 nM.
For `CNC(=O)c1c(-c2ccc(F)cc2)oc2cc(N(C)S(C)(=O)=O)c(-c3ccc4c(n3)-c3cc5cc(F)ccc5n3CC4)cc12` [Example 31, 5-(10-fluoro-5,6-dihydroindolo[1,2-h][1,7]naphthyridin-2-yl)-2-(4-fluorophenyl)-N-methyl-6-(N-methylmethylsulfonamido)benzofuran-3-carboxamide], the IC50 in assay [1] (setting [3]) worked out at 4.53 nM; in assay [2] (setting [4]), 4.64 nM.
As to `CNC(=O)c1c(-c2ccc(F)cc2F)oc2cc(N(C)S(C)(=O)=O)c(-c3ccc4c(n3)-c3cc5c(F)cccc5n3C(CO)C4)cc12` (single isomer, unassigned) [Example 51, (S or R)-2-(2,4-difluorophenyl)-5-(11-fluoro-6-(hydroxymethyl)-5,6-dihydroindolo[1,2-h][1,7]naphthyridin-2-yl)-N-methyl-6-(N-methylmethylsulfonamido)benzofuran-3-carboxamide], the IC50 in assay [1] (setting [3]) came to 4.49 nM; in assay [2] (setting [4]) it was 3.42 nM.
Regarding `CNC(=O)c1c(-c2ccc(C)nc2)oc2cc(N(C)S(C)(=O)=O)c(-c3ccc4c(n3)-c3cc5c(F)cccc5n3C(CCN3CC(F)C3)C4)cc12` (stereo not shown) [Example 68], the IC50 came to 70.9 nM in assay [1] (setting [5]) and 60.6 nM in assay [2] (setting [6]).
As for `CNC(=O)c1c(-c2cnn3ncccc23)oc2cc(N(C)S(C)(=O)=O)c(-c3ccc4c(n3)-c3cc5c(F)cccc5n3CC4)cc12` [Example 24], the figures for the IC50 in assay [1] (setting [3]) and in assay [2] (setting [4]) were 20 nM and 18.9 nM, respectively.
For `CNC(=O)c1c(-c2ccc(F)cc2)oc2cc(N(C)S(C)(=O)=O)c(-c3ccc4c(n3)-c3cc5c(F)cccc5n3CC(O)C4)cc12` (stereo not shown) [Example 69], in that order: 2.3 nM and 2.95 nM.
Regarding `CNC(=O)c1c(-c2ccc(F)cc2)oc2cc(N(C)S(C)(=O)=O)c(-c3cc4c(cn3)C(C)Cn3c-4cc4c(F)cccc43)cc12` (single isomer, unassigned) [Example 61, (S or R)-5-(11-fluoro-5-methyl-5,6-dihydroindolo[2,1-a][2,6]naphthyridin-2-yl)-2-(4-fluorophenyl)-N-methyl-6-(N-methylmethylsulfonamido)benzofuran-3-carboxamide], the figures for the IC50 in assay [1] (setting [5]) and in assay [2] (setting [6]) were 2.27 nM and 7.8 nM, respectively.
Turning to `CNC(=O)c1c(-c2ccc(F)cc2F)oc2cc(N(C)S(C)(=O)=O)c(-c3ccc4c(n3)-c3cc5c(F)cccc5n3C(CO)C4)cc12` (single isomer, unassigned) [Example 50, (R or S)-2-(2,4-difluorophenyl)-5-(1.1-fluoro-6-(hydroxymethyl)-5,6-dihydroindolo[1,2-h][1,7]naphthyridin-2-yl)-N-methyl-6-(N-methylmethylsulfonamido)benzofuran-3-carboxamide], the IC50 is 1.15 nM in assay [1] (genotype 1a replicon cells, 96 hours incubation, NS3/4A ELISA, read-out: 1a IC50) and 3.36 nM in assay [2] (genotype 1b replicon cells, 96 hours incubation, NS3/4A ELISA, read-out: 1b IC50).
`CNC(=O)c1c(-c2ccc(F)cc2F)oc2cc(N(C)S(C)(=O)=O)c(-c3ccc4c(n3)-c3cc5c(F)cccc5n3C(CN3CC(F)C3)C4)cc12` (stereo not shown) [Example 95]: the IC50 in assay [1] (setting [3]) turned out to be 8.91 nM; in assay [2] (setting [4]) it was 7.53 nM.
For `CNC(=O)c1c(-c2ccc(F)cc2)oc2cc(N(C)S(C)(=O)=O)c(-c3ccc4c(n3)-c3cc5c(F)cccc5n3CC=C4)cc12` [Example 98, 5-(12-fluoro-7H-pyrido[2′,3′:3,4]azepino[1,2-a]indol-2-yl)-2-(4-fluorophenyl)-N-methyl-6-(N-methylmethylsulfonamido)benzofuran-3-carboxamide], the IC50 in assay [1] (setting [3]) was found to be 4.17 nM; in assay [2] (setting [4]), 8.65 nM.
`CNC(=O)c1c(-c2ccc(C)nc2)oc2cc(N(C)S(C)(=O)=O)c(-c3cc4c(cn3)CCn3c-4cc4c(F)cccc43)cc12` [Example 40]: the figures for the IC50 in assay [1] (setting [3]) and in assay [2] (setting [4]) were 16.6 nM and 17.1 nM, respectively.
Take `CNC(=O)c1c(-c2c(C)n[nH]c2C)oc2cc(N(C)S(C)(=O)=O)c(-c3ccc4c(n3)-c3cc5c(F)cccc5n3CC4)cc12` [Example 26]: the results for the IC50 in assay [1] (setting [3]) and in assay [2] (setting [4]) were 69.3 nM and 84.4 nM, respectively.
Turning to `CNC(=O)c1c(-c2ccc(F)cc2)oc2cc(N(C)S(C)(=O)=O)c(-c3ccc4c(n3)-c3cc5c(F)cccc5n3C(CN3CC(F)(F)C3)C4)cc12` (stereo not shown) [Example 91], the IC50 in assay [1] (setting [3]) stood at 27.6 nM; in assay [2] (setting [4]) it was 9.23 nM.

(Values after patent US9243002B2, “Tetracyclic heterocycle compounds and methods of use thereof for the treatment of hepatitis C” (priority 2013, dated 2016).)
